Paper PMC11864979, “First-in-class ultralong-target-residence-time p38α inhibitors as a mitosis-targeted therapy for colorectal cancer” (Nature Cancer, 2025)
Like-named read-outs stand apart in the source and are kept apart here.

Experiments:
Test in all cases: selectivity profiling in a panel of 340 wild-type kinases (Reaction Biology Europe)
Type in all cases: binding
[1] = biological target: T1, 340 wild-type kinases (Homo sapiens, UniProt P43405)
T1 construct: purchased Reaction Biology Europe

[2] = biological target: T2, 340 wild-type kinases (Homo sapiens, UniProt Q9NYV4)
T2 construct: purchased Reaction Biology Europe

[3] = biological target: T3, 340 wild-type kinases (Homo sapiens, UniProt Q8TD08)
T3 construct: purchased Reaction Biology Europe
T3 sequence (Q8TD08 1-544): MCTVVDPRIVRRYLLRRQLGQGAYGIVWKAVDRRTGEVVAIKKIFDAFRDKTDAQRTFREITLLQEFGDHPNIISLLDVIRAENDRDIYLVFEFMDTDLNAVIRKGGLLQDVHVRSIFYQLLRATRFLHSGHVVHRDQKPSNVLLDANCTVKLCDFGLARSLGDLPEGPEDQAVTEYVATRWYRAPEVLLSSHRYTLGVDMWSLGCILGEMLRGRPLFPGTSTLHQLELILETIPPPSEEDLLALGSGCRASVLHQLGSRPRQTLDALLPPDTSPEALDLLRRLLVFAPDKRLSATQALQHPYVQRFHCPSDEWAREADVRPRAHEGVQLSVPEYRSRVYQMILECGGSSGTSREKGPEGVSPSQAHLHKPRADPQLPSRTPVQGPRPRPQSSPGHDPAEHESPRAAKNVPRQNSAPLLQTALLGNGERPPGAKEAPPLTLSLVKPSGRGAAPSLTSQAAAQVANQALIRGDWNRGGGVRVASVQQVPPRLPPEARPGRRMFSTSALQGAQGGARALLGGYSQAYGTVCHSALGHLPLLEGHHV

[4] = biological target: T4, 340 wild-type kinases (Homo sapiens, UniProt P23443)
T4 construct: purchased Reaction Biology Europe

[5] = biological target: T5, 340 wild-type kinases (Homo sapiens, UniProt Q02779)
T5 construct: purchased Reaction Biology Europe

[6] = biological target: T6, 340 wild-type kinases (Homo sapiens, UniProt P49336)
T6 construct: purchased Reaction Biology Europe

[7] = biological target: T7, 340 wild-type kinases (Homo sapiens, UniProt P15735)
T7 construct: purchased Reaction Biology Europe
T7 sequence (P15735 1-406): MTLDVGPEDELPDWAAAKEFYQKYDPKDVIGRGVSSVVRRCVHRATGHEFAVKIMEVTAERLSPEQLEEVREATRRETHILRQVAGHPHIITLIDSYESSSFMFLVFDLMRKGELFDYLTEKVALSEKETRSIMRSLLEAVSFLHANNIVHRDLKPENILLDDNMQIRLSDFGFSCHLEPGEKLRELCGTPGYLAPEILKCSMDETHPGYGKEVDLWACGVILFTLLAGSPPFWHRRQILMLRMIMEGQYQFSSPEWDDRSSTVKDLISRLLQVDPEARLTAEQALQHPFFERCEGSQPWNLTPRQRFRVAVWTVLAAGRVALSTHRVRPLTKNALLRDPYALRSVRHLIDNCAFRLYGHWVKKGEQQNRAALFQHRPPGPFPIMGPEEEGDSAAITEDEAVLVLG

[8] = biological target: T8, 340 wild-type kinases (Homo sapiens, UniProt Q9H4A3)
T8 construct: purchased Reaction Biology Europe

[9] = biological target: T9, 340 wild-type kinases (Homo sapiens, UniProt O15146)
T9 construct: purchased Reaction Biology Europe
T9 sequence (O15146 24-869): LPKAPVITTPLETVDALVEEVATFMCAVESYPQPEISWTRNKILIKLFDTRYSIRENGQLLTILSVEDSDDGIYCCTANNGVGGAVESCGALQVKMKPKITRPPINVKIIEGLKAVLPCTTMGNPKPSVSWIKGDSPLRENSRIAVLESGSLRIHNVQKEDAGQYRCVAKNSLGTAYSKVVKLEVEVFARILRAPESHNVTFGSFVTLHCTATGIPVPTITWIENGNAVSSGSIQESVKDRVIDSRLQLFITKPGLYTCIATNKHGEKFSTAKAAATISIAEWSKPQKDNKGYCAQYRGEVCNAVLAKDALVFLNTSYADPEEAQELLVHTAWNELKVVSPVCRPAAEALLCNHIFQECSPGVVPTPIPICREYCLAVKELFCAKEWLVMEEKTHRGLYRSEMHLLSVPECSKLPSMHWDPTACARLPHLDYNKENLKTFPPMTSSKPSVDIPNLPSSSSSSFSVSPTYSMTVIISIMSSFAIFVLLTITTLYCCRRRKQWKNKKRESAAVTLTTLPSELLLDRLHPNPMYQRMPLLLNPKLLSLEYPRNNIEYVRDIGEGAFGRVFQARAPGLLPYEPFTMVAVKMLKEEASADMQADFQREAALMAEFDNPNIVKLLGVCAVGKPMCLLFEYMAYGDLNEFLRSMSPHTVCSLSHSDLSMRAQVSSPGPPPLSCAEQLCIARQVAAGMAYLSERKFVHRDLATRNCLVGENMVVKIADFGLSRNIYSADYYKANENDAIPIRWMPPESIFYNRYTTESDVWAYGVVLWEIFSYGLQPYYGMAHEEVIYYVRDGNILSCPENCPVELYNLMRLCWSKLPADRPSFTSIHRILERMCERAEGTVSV

T4 sequence (P23443 whole entry): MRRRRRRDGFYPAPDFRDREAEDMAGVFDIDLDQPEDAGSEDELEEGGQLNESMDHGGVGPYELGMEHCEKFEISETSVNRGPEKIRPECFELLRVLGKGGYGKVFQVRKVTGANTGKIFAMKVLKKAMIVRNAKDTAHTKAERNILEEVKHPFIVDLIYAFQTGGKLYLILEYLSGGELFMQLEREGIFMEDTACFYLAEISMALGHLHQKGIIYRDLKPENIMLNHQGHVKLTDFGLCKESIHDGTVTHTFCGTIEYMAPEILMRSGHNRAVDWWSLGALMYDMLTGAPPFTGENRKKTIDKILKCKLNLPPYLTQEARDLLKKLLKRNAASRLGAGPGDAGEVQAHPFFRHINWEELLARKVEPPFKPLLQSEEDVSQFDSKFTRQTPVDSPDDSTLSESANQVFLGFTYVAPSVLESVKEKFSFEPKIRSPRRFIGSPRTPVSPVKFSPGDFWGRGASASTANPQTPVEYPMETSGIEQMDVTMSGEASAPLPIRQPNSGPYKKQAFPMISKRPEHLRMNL
T6 sequence (P49336 whole entry): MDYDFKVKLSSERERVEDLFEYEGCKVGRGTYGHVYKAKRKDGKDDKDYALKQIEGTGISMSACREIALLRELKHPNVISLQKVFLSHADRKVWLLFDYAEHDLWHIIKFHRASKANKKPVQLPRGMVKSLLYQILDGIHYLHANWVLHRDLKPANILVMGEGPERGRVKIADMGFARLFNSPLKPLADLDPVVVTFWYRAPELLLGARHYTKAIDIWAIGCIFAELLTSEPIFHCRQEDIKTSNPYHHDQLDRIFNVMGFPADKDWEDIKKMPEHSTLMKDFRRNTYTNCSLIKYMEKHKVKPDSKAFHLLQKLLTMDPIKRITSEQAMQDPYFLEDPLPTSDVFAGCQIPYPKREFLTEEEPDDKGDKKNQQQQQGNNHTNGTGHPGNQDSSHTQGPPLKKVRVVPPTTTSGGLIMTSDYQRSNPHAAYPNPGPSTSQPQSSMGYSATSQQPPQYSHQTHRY
T2 sequence (Q9NYV4 whole entry): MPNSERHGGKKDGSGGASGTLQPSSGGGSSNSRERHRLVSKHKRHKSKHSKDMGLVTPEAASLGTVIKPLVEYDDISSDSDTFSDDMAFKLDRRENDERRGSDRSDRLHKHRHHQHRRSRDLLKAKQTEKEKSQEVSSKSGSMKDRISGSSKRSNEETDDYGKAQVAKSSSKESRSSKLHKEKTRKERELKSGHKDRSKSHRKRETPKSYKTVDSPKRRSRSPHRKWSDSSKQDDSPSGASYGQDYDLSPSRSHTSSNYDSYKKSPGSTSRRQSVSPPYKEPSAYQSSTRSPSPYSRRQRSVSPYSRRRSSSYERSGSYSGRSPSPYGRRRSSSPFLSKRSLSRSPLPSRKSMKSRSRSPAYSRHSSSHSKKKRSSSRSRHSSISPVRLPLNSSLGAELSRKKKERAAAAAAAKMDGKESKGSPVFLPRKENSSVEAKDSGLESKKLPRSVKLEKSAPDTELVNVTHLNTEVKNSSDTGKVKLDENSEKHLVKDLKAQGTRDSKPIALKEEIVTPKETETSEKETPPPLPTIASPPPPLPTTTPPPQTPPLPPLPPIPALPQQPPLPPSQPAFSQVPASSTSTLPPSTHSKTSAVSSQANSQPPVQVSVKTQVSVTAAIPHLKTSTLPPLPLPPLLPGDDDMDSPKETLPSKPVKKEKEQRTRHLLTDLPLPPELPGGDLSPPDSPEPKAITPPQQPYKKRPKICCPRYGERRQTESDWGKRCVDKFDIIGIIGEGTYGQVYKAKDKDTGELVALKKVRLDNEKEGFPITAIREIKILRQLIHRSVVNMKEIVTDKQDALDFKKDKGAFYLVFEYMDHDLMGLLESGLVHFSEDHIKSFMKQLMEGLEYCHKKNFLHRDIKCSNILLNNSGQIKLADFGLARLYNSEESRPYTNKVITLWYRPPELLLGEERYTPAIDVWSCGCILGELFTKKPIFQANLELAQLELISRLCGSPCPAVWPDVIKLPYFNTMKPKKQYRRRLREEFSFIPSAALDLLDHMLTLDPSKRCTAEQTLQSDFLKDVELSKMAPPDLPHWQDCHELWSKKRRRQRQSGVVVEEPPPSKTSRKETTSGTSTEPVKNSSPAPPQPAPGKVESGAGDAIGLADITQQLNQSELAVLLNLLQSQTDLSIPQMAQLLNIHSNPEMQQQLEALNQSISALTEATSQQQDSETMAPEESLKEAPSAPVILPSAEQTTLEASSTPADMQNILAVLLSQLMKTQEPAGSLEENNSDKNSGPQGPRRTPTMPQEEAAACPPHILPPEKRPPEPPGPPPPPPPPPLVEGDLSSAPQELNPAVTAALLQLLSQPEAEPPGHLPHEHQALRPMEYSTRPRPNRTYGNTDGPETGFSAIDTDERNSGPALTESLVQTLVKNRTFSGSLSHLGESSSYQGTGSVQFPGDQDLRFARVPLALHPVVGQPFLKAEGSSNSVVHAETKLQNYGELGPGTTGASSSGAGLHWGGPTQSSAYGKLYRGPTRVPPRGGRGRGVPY
T8 sequence (Q9H4A3 whole entry): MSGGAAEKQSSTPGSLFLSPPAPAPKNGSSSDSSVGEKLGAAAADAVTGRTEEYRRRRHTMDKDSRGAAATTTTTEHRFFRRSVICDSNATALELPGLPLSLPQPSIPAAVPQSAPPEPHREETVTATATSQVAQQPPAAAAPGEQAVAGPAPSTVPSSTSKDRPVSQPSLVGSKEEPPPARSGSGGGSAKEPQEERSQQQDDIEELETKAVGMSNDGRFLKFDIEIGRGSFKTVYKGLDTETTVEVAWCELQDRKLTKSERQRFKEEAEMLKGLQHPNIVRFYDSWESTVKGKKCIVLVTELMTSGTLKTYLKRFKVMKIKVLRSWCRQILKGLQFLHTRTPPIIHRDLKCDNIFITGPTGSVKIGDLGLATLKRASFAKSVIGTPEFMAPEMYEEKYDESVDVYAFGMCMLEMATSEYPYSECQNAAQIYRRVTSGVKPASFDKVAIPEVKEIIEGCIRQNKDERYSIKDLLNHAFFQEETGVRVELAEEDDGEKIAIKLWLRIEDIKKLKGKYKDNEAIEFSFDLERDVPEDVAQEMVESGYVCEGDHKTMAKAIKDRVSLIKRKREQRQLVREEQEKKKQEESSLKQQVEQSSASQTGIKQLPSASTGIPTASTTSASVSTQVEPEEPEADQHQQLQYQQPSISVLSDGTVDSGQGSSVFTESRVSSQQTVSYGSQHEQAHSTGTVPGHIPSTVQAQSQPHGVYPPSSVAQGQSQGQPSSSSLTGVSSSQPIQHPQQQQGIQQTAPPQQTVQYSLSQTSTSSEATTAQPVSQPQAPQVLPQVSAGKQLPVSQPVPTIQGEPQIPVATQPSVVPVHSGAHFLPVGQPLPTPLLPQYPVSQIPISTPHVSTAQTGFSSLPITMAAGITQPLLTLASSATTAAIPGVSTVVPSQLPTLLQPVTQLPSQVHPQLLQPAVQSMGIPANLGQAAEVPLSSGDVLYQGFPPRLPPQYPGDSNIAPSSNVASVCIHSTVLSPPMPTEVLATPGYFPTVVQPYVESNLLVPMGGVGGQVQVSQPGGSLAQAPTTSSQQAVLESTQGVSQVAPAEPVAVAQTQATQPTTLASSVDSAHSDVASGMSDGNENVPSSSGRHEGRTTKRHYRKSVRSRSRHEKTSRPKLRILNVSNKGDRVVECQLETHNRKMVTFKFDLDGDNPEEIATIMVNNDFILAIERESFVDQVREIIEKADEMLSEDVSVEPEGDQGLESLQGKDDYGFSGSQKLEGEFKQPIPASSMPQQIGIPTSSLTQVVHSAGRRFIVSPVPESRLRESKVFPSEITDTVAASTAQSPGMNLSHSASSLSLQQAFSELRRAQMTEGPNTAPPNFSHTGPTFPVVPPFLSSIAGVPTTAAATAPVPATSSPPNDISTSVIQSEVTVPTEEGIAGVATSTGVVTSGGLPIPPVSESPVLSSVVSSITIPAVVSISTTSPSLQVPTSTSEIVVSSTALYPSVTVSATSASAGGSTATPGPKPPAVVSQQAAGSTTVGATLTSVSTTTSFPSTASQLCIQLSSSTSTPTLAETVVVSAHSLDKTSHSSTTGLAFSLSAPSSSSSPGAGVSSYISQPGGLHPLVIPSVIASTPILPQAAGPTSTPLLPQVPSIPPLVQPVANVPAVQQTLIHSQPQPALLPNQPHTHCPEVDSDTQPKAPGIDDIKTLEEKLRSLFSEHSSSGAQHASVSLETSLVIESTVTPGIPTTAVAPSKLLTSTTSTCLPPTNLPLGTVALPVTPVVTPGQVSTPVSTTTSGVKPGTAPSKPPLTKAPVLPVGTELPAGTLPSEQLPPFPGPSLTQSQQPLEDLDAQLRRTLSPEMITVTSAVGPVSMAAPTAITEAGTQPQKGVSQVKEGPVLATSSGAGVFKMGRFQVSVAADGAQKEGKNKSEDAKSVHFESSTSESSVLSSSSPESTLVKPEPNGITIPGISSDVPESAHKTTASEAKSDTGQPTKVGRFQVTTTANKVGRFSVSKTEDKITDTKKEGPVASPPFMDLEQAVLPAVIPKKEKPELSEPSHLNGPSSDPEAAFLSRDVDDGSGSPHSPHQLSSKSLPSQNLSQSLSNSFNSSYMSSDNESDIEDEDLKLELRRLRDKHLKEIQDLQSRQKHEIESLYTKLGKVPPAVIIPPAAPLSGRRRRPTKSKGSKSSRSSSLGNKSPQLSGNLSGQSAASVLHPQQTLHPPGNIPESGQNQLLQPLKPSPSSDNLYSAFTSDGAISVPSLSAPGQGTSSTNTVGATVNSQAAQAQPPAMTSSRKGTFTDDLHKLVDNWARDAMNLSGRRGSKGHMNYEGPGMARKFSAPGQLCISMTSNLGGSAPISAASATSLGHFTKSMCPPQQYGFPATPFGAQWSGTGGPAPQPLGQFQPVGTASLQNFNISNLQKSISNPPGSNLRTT

CNC(=O)c1ccc2c(c1)C(=O)c1ccc(Nc3ccc(F)c(NC(=O)C4CC4)c3)cc1CC2 [Compound 2015]
remaining activity at 0.2 µM ([1]; 0.2 µM 2015, read-out: SYK residual activity): 95.8% | remaining activity at 1 µM ([1]; 1 µM 2015, read-out: SYK residual activity): 85.6% | remaining activity at 0.2 µM ([1]; SYK, 0.2 µM, read-out: residual activity): 95.8% | remaining activity at 1 µM ([1]; SYK, 1 µM, read-out: residual activity): 85.6% | remaining activity at 0.2 µM ([2]; 0.2 µM 2015, read-out: CDK12/CycK residual activity): 112% | remaining activity at 1 µM ([2]; 1 µM 2015, read-out: CDK12/CycK residual activity): 103% | remaining activity at 0.2 µM ([2]; CDK12/CycK, 0.2 µM, read-out: residual activity): 112% | remaining activity at 1 µM ([2]; CDK12/CycK, 1 µM, read-out: residual activity): 103% | remaining activity at 0.2 µM ([3]; 0.2 µM 2015, read-out: ERK7 residual activity): 93% | remaining activity at 1 µM ([3]; 1 µM 2015, read-out: ERK7 residual activity): 82.2% | remaining activity at 0.2 µM ([3]; ERK7, 0.2 µM, read-out: residual activity): 93% | remaining activity at 1 µM ([3]; ERK7, 1 µM, read-out: residual activity): 82.2% | remaining activity at 0.2 µM ([4]; 0.2 µM 2015, read-out: S6K residual activity): 94.9% | remaining activity at 1 µM ([4]; 1 µM 2015, read-out: S6K residual activity): 95.1% | remaining activity at 0.2 µM ([4]; S6K, 0.2 µM, read-out: residual activity): 94.9% | remaining activity at 1 µM ([4]; S6K, 1 µM, read-out: residual activity): 95.1% | remaining activity at 0.2 µM ([5]; 0.2 µM 2015, read-out: MAP3K10 residual activity): 111% | remaining activity at 1 µM ([5]; 1 µM 2015, read-out: MAP3K10 residual activity): 106% | remaining activity at 0.2 µM ([5]; MAP3K10, 0.2 µM, read-out: residual activity): 111% | remaining activity at 1 µM ([5]; MAP3K10, 1 µM, read-out: residual activity): 106% | remaining activity at 0.2 µM ([6]; 0.2 µM 2015, read-out: CDK8/CycC residual activity): 92.5% | remaining activity at 1 µM ([6]; 1 µM 2015, read-out: CDK8/CycC residual activity): 85.2% | remaining activity at 0.2 µM ([6]; CDK8/CycC, 0.2 µM, read-out: residual activity): 92.5% | remaining activity at 1 µM ([6]; CDK8/CycC, 1 µM, read-out: residual activity): 85.2% | remaining activity at 0.2 µM ([7]; 0.2 µM 2015, read-out: PHKG2 residual activity): 102% | remaining activity at 1 µM ([7]; 1 µM 2015, read-out: PHKG2 residual activity): 98.8% | remaining activity at 0.2 µM ([7]; PHKG2, 0.2 µM, read-out: residual activity): 102% | remaining activity at 1 µM ([7]; PHKG2, 1 µM, read-out: residual activity): 98.8% | remaining activity at 0.2 µM ([8]; 0.2 µM 2015, read-out: WNK1 residual activity): 95% | remaining activity at 1 µM ([8]; 1 µM 2015, read-out: WNK1 residual activity): 91.4% | remaining activity at 0.2 µM ([8]; WNK1, 0.2 µM, read-out: residual activity): 95% | remaining activity at 1 µM ([8]; WNK1, 1 µM, read-out: residual activity): 91.4% | remaining activity at 0.2 µM ([9]; 0.2 µM 2015, read-out: MUSK residual activity): 87.5% | remaining activity at 1 µM ([9]; 1 µM 2015, read-out: MUSK residual activity): 87.3% | remaining activity at 0.2 µM ([9]; MUSK, 0.2 µM, read-out: residual activity): 87.5% | remaining activity at 1 µM ([9]; MUSK, 1 µM, read-out: residual activity): 87.3%
